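In this assay, cells in 96-well plates receive the compound at five concentrations for 48 hours. Endpoints are linearly interpolated between the surrounding concentrations. GI50 is the concentration that inhibits growth by half. Definition used: TGI = concentration required for complete inhibition of growth.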
Columns and labels:
Test in all cases: NCI-60 cell line screen, 48 h
LOX IMVI melanoma = tested on: LOX IMVI melanoma
HOP-62 NSCLC = tested on: HOP-62 NSCLC
RXF 393 renal = tested on: RXF 393 renal
HCT-116 colon = tested on: HCT-116 colon
TK-10 renal = tested on: TK-10 renal
HCC-2998 colon = tested on: HCC-2998 colon
OVCAR-3 ovarian = tested on: OVCAR-3 ovarian
MDA-MB-231 breast = tested on: MDA-MB-231 breast
NCI-H23 lung = tested on: NCI-H23 lung
UACC-62 melanoma = tested on: UACC-62 melanoma

| SMILES | TGI (LOX IMVI melanoma) [nM] | TGI (HOP-62 NSCLC) [nM] | TGI (RXF 393 renal) [nM] | TGI (HCT-116 colon) [nM] | TGI (TK-10 renal) [nM] | TGI (HCC-2998 colon) [nM] | TGI (OVCAR-3 ovarian) [nM] | TGI (MDA-MB-231 breast) [nM] | TGI (NCI-H23 lung) [nM] | TGI (UACC-62 melanoma) [nM] | GI50 (LOX IMVI melanoma) [nM] | GI50 (HOP-62 NSCLC) [nM] | GI50 (RXF 393 renal) [nM] | GI50 (HCT-116 colon) [nM] | GI50 (TK-10 renal) [nM] | GI50 (HCC-2998 colon) [nM] | GI50 (OVCAR-3 ovarian) [nM] | GI50 (MDA-MB-231 breast) [nM] | GI50 (NCI-H23 lung) [nM] | GI50 (UACC-62 melanoma) [nM] |
| --- | --- | --- | --- | --- | --- | --- | --- | --- | --- | --- | --- | --- | --- | --- | --- | --- | --- | --- | --- | --- |
| COC(=O)c1sc(C(=O)OC)c2c1CSC2 | > 100000 | > 100000 | > 97100 | > 100000 | > 100000 | > 100000 | > 100000 | > 100000 | > 100000 | > 100000 |  |  |  |  |  |  |  |  |  |  |
| C=C1C(=O)O[C@H]2[C@H]1CC/C(COC(=O)NCc1ccc(Cn3c(=O)sn(CCCCl)c3=O)cc1)=C\CC[C@@]1(C)O[C@@H]21 | 3090 | 27500 | 2800 | 1870 | 3340 | 21400 | 2090 | 3330 | 5360 | 2800 | 1580 | 13900 | 1350 | 565 | 1750 | 7830 | 776 | 1720 | 2330 | 1440 |
| N#Cc1cnc2cc(OC[C@@H](O)CO)c(NC(=O)CC3CSSC3)cc2c1Nc1ccc(OCc2cccc(F)c2)c(Cl)c1 | 3080 | 896 | 1440 | 200 | 1510 | 506 | 913 | 237 | 1510 | 1080 | 2170 | 311 | 643 | 88.2 | 772 | 164 | 284 | 104 | 614 | 380 |
| Cn1c(=O)c(Oc2ccccc2F)cc2cnc(NC3CCOCC3)nc21 | > 25000 | > 25000 | > 25000 | > 25000 | > 25000 | > 25000 | > 25000 | > 25000 | > 25000 | > 25000 | > 25000 | > 25000 | > 25000 | > 25000 | > 25000 | > 25000 | > 25000 | > 25000 | > 25000 | > 25000 |
| CCCCCCCCCCN(CCCCCCCCCC)CC(=O)c1ccc2cc(Br)c3ccccc3c2c1 | 3320 | 3400 | 3500 | 3170 | 3260 | 3160 | 3540 | 3260 | 3400 | 3350 | 1750 | 1630 | 1980 | 1670 | 1760 | 1730 | 1980 | 1670 | 1780 | 1610 |
| OCCSCc1ccccc1 | > 100000 | > 100000 | > 100000 | > 100000 | > 100000 | > 100000 | > 100000 | > 100000 | > 100000 | > 100000 |  |  |  |  |  |  |  |  |  |  |
| C#CC1(O)C(COP(=O)(O)OC2CC(n3cc(F)c(=O)[nH]c3=O)OC2CO)OC(n2ccc(N)nc2=O)C1O (centres undefined) | 1870 | > 100000 | 2370 | > 100000 | > 42800 | 431 |  | > 61900 | > 38000 | 1820 | < 10 | < 10 | < 34.2 | < 10 | 27.3 | < 10 | 31 | 73.1 | < 26 | 19 |

Reference: PubChem BioAssay (NCI)
